Molecules are shown by their SMILES.

This assay addresses T1, Na+-dependent bile acid transportation system (Oryctolagus cuniculus, UniProt Q28727).
T1 construct: Brush border membrane vesicles were prepared from the intestinal cells of the small intestine; from tissue; host or cells: terminal 7/10 of the small intestine (ileum) of male New Zealand rabbits, mucosal brush border membrane vesicles
T1 sequence (Q28727 1-347): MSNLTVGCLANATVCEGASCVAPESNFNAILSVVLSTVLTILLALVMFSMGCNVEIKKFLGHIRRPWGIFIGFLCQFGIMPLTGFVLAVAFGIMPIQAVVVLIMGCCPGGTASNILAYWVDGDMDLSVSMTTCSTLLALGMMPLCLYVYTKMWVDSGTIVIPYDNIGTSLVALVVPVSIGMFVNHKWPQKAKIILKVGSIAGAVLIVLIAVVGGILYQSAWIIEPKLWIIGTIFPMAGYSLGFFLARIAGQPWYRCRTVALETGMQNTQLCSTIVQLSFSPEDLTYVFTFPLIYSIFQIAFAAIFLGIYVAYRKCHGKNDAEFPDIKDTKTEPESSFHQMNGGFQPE
Description: Inhibition of [3H]-taurocholate uptake in brush border membrane vesicles from the ileum of rabbits. The format is biochemical. To be noted: Na+-dependent [3H]-taurocholate uptake (difference Na-T-P minus K-T-P), 50 μM taurocholate, rabbit ileum brush border membrane vesicles; drawing 7. As to the method: The compounds according to the invention were tested biologically by determination of the inhibition of [^3 H]taurocholate uptake in the brush border membrane vesicles from the ileum of rabbits. The inhibition test was carried out as follows:
1. Preparation of brush border membrane vesicles from the ileum of rabbits
Brush border membrane vesicles were prepared from the intestinal cells of the small intestine by the so-called Mg^2+ precipitation method. Male New Zealand rabbits (2 to 2.5 kg body weight) were sacrificed by intravenous injection of 0.5 ml of an aqueous solution of 2.5 mg of tetracaine HCl, 100 T 61^R and 25 mg of mebezonium iodide. The small intestine was removed and rinsed with ice-cold physiological saline solution. The terminal 7/10 of the small intestine (measured in the oral-rectal direction, i.e. the terminal ileum, which contains the active Na^+ -dependent bile acid transportation system) was used for preparation of the brush border membrane vesicle. The intestines were frozen in plastic bags under nitrogen at -80° C. For preparation of the membrane vesicles, the frozen intestines were thawed at 30° C. in a water bath. The mucosa was scraped off and suspended in 60 ml of ice-cold 12 mM Tris/HCl buffer (pH 7.1)/300 mM mannitol, 5 mM EGTA/10 mg/1 of phenylmethylsulfonyl fluoride/1 mg/1 of trypsin inhibitor from soybeans (32 U/mg)/0.5 mg/1 of trypsin inhibitor from bovine lung (193 U/mg)/5 mg/1 of bacitracin. After dilution to 300 ml with ice-cold distilled water, the mixture was homogenized with an Ultraturrax (18-rod, IKA Werk Staufen, FRG) for 3 minutes at 75% of the maximum output, while cooling with ice. After addition of 3 ml of 1M MgCl2 solution (final concentration 10 mM), the mixture was left to stand at 0° C. for exactly 1 minute. The cell membranes aggregate by addition of Mg^2+ and precipitate, with the exception of the brush border membranes. After centrifugation at 3000× g (5000 rpm, SS-34 rotor) for 15 minutes, the precipitate was discarded, and the supernatant, which contained the brush border membranes, was centrifuged at […] (15000 rpm, SS-34 rotor) for 30 minutes. The supernatant was discarded and the precipitate was rehomogenized in 60 ml of 12 mM Tris/HCl buffer (pH 7.1)/60 mM mannitol, 5 mM EGTA using a Potter Elvejhem homogenizer (Braun, Melsungen, 900 rpm, 10 strokes). After addition of 0.1 ml of 1 M MgCl2 solution and an incubation time of 15 minutes at 0° C., the mixture was centrifuged again at 3000× g for 15 minutes. The supernatant was then centrifuged again at 46000× g (15000 rpm, SS-34 rotor) for 30 minutes. The precipitate was taken up in 30 ml of 10 mM Tris/Hepes buffer (pH 7.4)/300 mM mannitol and resuspended homogeneously by 20 strokes in a Potter Elvejhem homogenizer at 1000 rpm. After centrifugation at 48000× g (20000 rpm, SS-34 rotor) for 30 minutes, the precipitate was taken up in 0.5 to 2 ml of Tris/Hepes buffer (pH 7.4)/280 mM mannitol (final concentration 20 mg/ml) and resuspended with the aid of a tuberculin syringe with a 27 gauge needle. The vesicles were either used immediately for transportation studies after preparation, or stored at -196° C. in portions of 4 mg in liquid nitrogen.
2. Inhibition of Na^+ -dependent [^3 H]-taurocholate uptake in the brush border membrane vesicles of the ileum
The uptake of substrates into the brush border membrane vesicles described above was determined by means of the so-called membrane filtration technique. 10 μl of the vesicle suspension (100 μg of protein) were pipetted as drops onto the wall of a polystyrene incubation tube (11×70 mm) which contained the incubation medium with the corresponding ligands (90 μl). […]

Consider `C[C@H](CCC(=O)O)[C@H]1CC[C@H]2[C@@H]3[C@H](O)C[C@@H]4C[C@@H](OCCCCCCCCO)CC[C@]4(C)[C@H]3C[C@H](O)[C@]12C` [Example 3], for which the “quotient of the IC50Na value of taurochenodesoxycholate (TCDC) standard and the particular substance” value (“quotient” below) worked out at 0.35.
Then `C[C@H](CCC(=O)O)[C@H]1CC[C@H]2[C@@H]3[C@H](O)C[C@@H]4C[C@@H](OCCCCCCCCCO)CC[C@]4(C)[C@H]3C[C@H](O)[C@]12C` [Example 4], with 0.69.
Regarding `C[C@H](CCC(=O)O)[C@H]1CC[C@H]2[C@@H]3[C@H](O)C[C@@H]4C[C@@H](OCCCCCCOP(=O)(Oc5ccccc5)Oc5ccccc5)CC[C@]4(C)[C@H]3C[C@H](O)[C@]12C` [Example 18], the “quotient” value is 0.42.
Regarding `C[C@H](CCC(=O)O)[C@H]1CC[C@H]2[C@@H]3[C@H](O)C[C@@H]4C[C@@H](OCCCCCCNC(N)=O)CC[C@]4(C)[C@H]3C[C@H](O)[C@]12C` [Example 21], the “quotient” value was 0.33.
`C[C@H](CCC(=O)O)[C@H]1CC[C@H]2[C@@H]3[C@H](O)C[C@@H]4C[C@H](CCNC(=O)c5cccc6ccccc56)CC[C@]4(C)[C@H]3C[C@H](O)[C@]12C` [Example 33]: the “quotient” value was 0.35.
In the case of `Cc1ccc(S(=O)(=O)NCCCCCCO[C@H]2CC[C@@]3(C)[C@@H](C2)C[C@@H](O)[C@@H]2[C@@H]3C[C@H](O)[C@]3(C)[C@@H]([C@H](C)CCC(=O)O)CC[C@@H]23)cc1` [Example 35], the “quotient” value was found to be 1.02.
To `Cc1ccc(S(=O)(=O)N(C)CCCCCCO[C@H]2CC[C@@]3(C)[C@@H](C2)C[C@@H](O)[C@@H]2[C@@H]3C[C@H](O)[C@]3(C)[C@@H]([C@H](C)CCC(=O)O)CC[C@@H]23)cc1` [Example 36] belongs 0.20.
To `C[C@H](CCC(=O)O)[C@H]1CC[C@H]2[C@@H]3[C@H](O)C[C@@H]4C[C@@H](OCCCCCCNC(=O)c5cccc6ccccc56)CC[C@]4(C)[C@H]3C[C@H](O)[C@]12C` [Example 38] belongs 0.41; to `COc1ccc(Cl)cc1C(=O)NCCc1ccc(S(=O)(=O)NC(=O)NCCCCCCO[C@H]2CC[C@@]3(C)[C@@H](C2)C[C@@H](O)[C@@H]2[C@@H]3C[C@H](O)[C@]3(C)[C@@H]([C@H](C)CCC(=O)O)CC[C@@H]23)cc1` [Example 40], 0.50; to `C[C@H](CCC(=O)O)[C@H]1CC[C@H]2[C@@H]3[C@H](O)C[C@@H]4C[C@@H](OCCCCCCNC(=O)[C@H](O)[C@@H](O)[C@H](O)[C@H](O)CO)CC[C@]4(C)[C@H]3C[C@H](O)[C@]12C` [Example 43], 0.73.
